tested on: DNA; assay: Binding affinity to human truncated telomeric DNA1 assessed as melting temperature at 20 uM by UV melting curve analysis (reference value: 58.9 +/- 0.3 degC); format: nucleic-acid assay

Compound | Tm
CC(=O)NCCN(CC(=O)NCCN(CC(=O)NC(CCCCN)CN(CC(=O)NCCN(CC(=O)NCCN(CC(=O)NC(CCCCN(C)C)C(N)=O)C(=O)Cn1cc(C)c(=O)[nH]c1=O)C(=O)Cn1cnc2c(=O)[nH]c(N)nc21)C(=O)Cn1cnc2c(=O)[nH]c(N)nc21)C(=O)Cn1cnc2c(=O)[nH]c(N)nc21)C(=O)Cn1cc(C)c(=O)[nH]c1=O (centres undefined) | 60.2 °C
CC(=O)NCCN(CC(=O)NC(CCCCN)CN(CC(=O)NC(CCCCN)CN(CC(=O)NC(CCCCN)CN(CC(=O)NCCN(CC(=O)NC(CCCCN(C)C)C(N)=O)C(=O)Cn1cc(C)c(=O)[nH]c1=O)C(=O)Cn1cnc2c(=O)[nH]c(N)nc21)C(=O)Cn1cnc2c(=O)[nH]c(N)nc21)C(=O)Cn1cnc2c(=O)[nH]c(N)nc21)C(=O)Cn1cc(C)c(=O)[nH]c1=O (centres undefined) | 59.1 °C
CC(=O)NCCN(CC(=O)NCCN(CC(=O)NCCN(CC(=O)NCCN(CC(=O)NCCN(CC(=O)NC(CCCCN(C)C)C(N)=O)C(=O)Cn1cc(C)c(=O)[nH]c1=O)C(=O)Cn1cnc2c(=O)[nH]c(N)nc21)C(=O)Cn1cnc2c(=O)[nH]c(N)nc21)C(=O)Cn1cnc2c(=O)[nH]c(N)nc21)C(=O)Cn1cc(C)c(=O)[nH]c1=O (centres undefined) | 57.3 °C
CC(=O)NCCN(CC(=O)NC(CCCCN)CN(CC(=O)NCCN(CC(=O)NC(CCCCN)CN(CC(=O)NCCN(CC(=O)NC(CCCCN(C)C)C(N)=O)C(=O)Cn1cc(C)c(=O)[nH]c1=O)C(=O)Cn1cnc2c(=O)[nH]c(N)nc21)C(=O)Cn1cnc2c(=O)[nH]c(N)nc21)C(=O)Cn1cnc2c(=O)[nH]c(N)nc21)C(=O)Cn1cc(C)c(=O)[nH]c1=O (centres undefined) | 58.4 °C

Reference: ChEMBL document CHEMBL3627717, “Multivalent LKγ-PNA oligomers bind to a human telomere DNA G-rich sequence to form quadruplexes” (Bioorg Med Chem Lett, 2015)
